Measurements reported in patent US20260224758A1, “ALPHA-SYNUCLEIN BINDERS AND METHODS OF USE” (Merck Sharp & Dohme LLC, priority 2023, published 2026).
pKi: −log10 of the molar value. Like-named read-outs stand apart in the source and are kept apart here.

Legend:
[1] = target: aggregated beta amyloid in AD tissue (Homo sapiens, UniProt P05067); assay: Competitive radioligand binding to pathological aggregated beta amyloid in AD tissue (Assay 2), displacement of [^3H]-105; details: Aβ-rich AD frontal cortex homogenate, [^3H]-105, Kd 11.0 nM
Chain of aggregated beta amyloid in AD tissue (P05067 672-711 limits assumed): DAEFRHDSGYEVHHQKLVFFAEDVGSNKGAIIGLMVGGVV
Experimental: Frozen human brain samples of Alzheimer's disease (AD) were purchased from Analytic Biological Services Inc. The samples were post-mortem tissue from donors with clinical diagnosis of AD and much of the white matter was dissected out of the frontal cortex in order to enrich the tissue preparations for gray matter. Brain homogenates of gray matter enriched frontal cortex were prepared by homogenizing the tissue in ice cold Phosphate Buffered Saline (PBS), pH 7.4 at 80 mg wet weight tissue per 1 ml for 45 seconds at 4° C., on setting 16 of Polytron. The homogenate was further diluted with ice cold PBS to 30 mg wet weight tissue per 1 ml and homogenized for an additional minute as described above. Homogenates were aliquoted in 5 ml/tube and stored at −70° C. until use.
Radioligand [^3H]-105, prepared as described in ACS Med. Chem. Lett., Vol. 2, pages 498-502, was used in this assay.
For Assay 2 unlabeled test compounds were dissolved in DMSO at 10 mM. Dilutions of tests compounds to various concentrations were made in 100% DMSO at 1000× final assay concentration and 0.225 μl aliquots were dispensed into assay plates. Brain homogenates were diluted to 0.5 mg/ml from original 30 mg/ml volume in Assay Buffer, and 200 μl were added to the assay plate for a final concentration of 100 ug wet weight/assay well. [^3H]-105 was prepared at 10× final concentration in Assay Buffer plus 20% DMSO and 25 μl was added to the assay plate for final assay concentration of 3.0 nM. The plates were incubated at 37° C. for 90 minutes. Unbound and bound ligand were separated by filtration of bound onto GF/B filter plates (pre-treated for 30 min with 0.1% PEI) using a Packard Filtermate and washing away unbound with 2.5 mil ice cold 5 mM Tris at pH 7.4. Filter plates were dried for 1 hr at 57° C. and 50 μl Microscint was added to each well of the plate. The plates were counted for ^3H cpm for 1 min per well using PerkinElmer TopCount.

[2] = target: T1, triton-extracted alpha-synuclein from PD Tissue (Homo sapiens, UniProt P37840); assay: Alpha-synuclein tissue homogenate binding assay (Assay 1), displacement of [^3H]-1000; details: for Selectivity ratio (Assay 2/Assay 1): Aβ Tissue Ki / α-synuclein Tissue Ki; for pKi: read-out: α-synuclein Tissue Ki (Assay 1)
T1 construct: tissue Analytic Biological Services Inc; host or cells: human PD temporal cortex grey matter, Triton X-100 insoluble pellet
Experimental: Frozen human brain tissues from PD patients were purchased from Analytic Biological Services Inc. The samples were post-mortem tissues from donors with clinical diagnosis of late stage of PD. Alpha-synuclein, tau and amyloid burden was determined through a combination of immunohistochemistry on frozen thin coronal sections, as well as alpha Lisa-based quantification of protein levels in a detergent insoluble protein fraction. A tissue sample of temporal cortex was identified from one donor as having moderate to high alpha-synuclein burden, low amyloid and minimal to no tau pathology. The detergent insoluble fraction of temporal cortex from this patient was used to support homogenate binding studies. Grey matter was dissected out of the temporal cortex tissue with a dissecting blade and minced with fine dissecting scissors. […] Homogenates were centrifuged at 100,000×g for 45 minutes. The pellet was resuspended in TBS-TX buffer, using a Polytron at highest setting for 30 seconds at 4° C. Homogenates were centrifuged at 100,000×g for 45 minutes and the pellet was resuspended in TBS-TX buffer. A BCA protein assay was performed on the final homogenate to determine the protein concentration. […] For displacement a-synuclein binding assay, compounds and control were solvated in dimethyl sulfoxide (DMSO) and transferred using focused acoustic energy by an Echo 655 liquid handling instrument (Beckman Coulter, Indianapolis, IN) into designated wells of uniquely bar coded 96-well v-bottom low binding polypropylene microplates (Thermo Scientific, 249946). Compound dose response curves were prepared in a 10-point, 3-fold fashion within columns 2-11 of the microplate from high to low compound concentrations. […] Liquid-handling steps for dispensing insoluble fractions of PD brain homogenates and radioligand were performed using a Bravo automated liquid handling platform equipped with a 96LT disposable tip head (Agilent Technologies, Santa Clara. CA). […] The incubation was terminated by rapid filtration through UniFilter-96 GF/C microplates (pre-treated for 30 minutes with 0.2% Polyethylenimine at 4° C.) by using a FilterMate Harvester (PerkinElmer). […] The bottom of each UniFilter-96 GF/C microplate was adhesively sealed (PerkinElmer 6005199) prior to the addition of 50 μL MicroScint-20 liquid scintillation cocktail (PerkinElmer 6013621) to each well. A clear adhesive seal (TopSeal-A PLUS, PerkinElmer 6050185) was then applied to the top of each microplate and counted 1 minute/well on MicroBeta^2 system (PerkinElmer.

[3] = insoluble fraction of PD brain homogenate, [^3H]-1000 3.0 nM, Kd 0.90 nM

SMILES	pKi [1]	Selectivity ratio (Assay 2/Assay 1) [2]	pKi [2, 3]	pKi [2]
COC[C@H]1CN(c2ncc(C#Cc3ccc(-n4ccnc4)nc3)cn2)CCN1c1ccnc(F)n1 [Example 61, (R)-4-(4-(5-((6-(1H-imidazol-1-yl)pyridin-3-yl)ethynyl)pyrimidin-2-yl)-2-(methoxymethyl)piperazin-1-yl)-2-fluoropyrimidine]	≤ 5.92	805	8.83	–
COC[C@H]1CN(c2ncc(/C=C/c3ccc(-n4ccnc4)nc3)cn2)CCN1c1ccccn1 [Example 22, (R,E)-5-(2-(6-(1H-imidazol-1-yl)pyridin-3-yl)vinyl)-2-(3-(methoxymethyl)-4-(pyridin-2-yl)piperazin-1-yl)pyrimidine]	5.89	1857	9.15	–
COC[C@H]1CN(c2ccccn2)CCN1c1ncc(/C=C/c2ccc(-c3cnco3)nc2)cn1 [Example 26, (R,E)-5-(5-(2-(2-(2-(methoxymethyl)-4-(pyridin-2-yl)piperazin-1-yl)pyrimidin-5-yl)vinyl)pyridin-2-yl)oxazole]	≤ 4.92	3871	8.51	–
OC[C@H]1CN(c2cc(F)ncn2)CCN1c1ncc(/C=C/c2ccc(-n3ccnc3)nc2)cn1 [Example 15, (R,E)-(1-(5-(2-(6-(1H-imidazol-1-yl)pyridin-3-yl)vinyl)pyrimidin-2-yl)-4-(6-fluoropyrimidin-4-yl)piperazin-2-yl)methanol]	≤ 4.92	12000	9.00	–
COC[C@H]1CN(c2ncc(/C=C/c3ccc(-n4ccnc4)nc3)cn2)CCN1c1ncc(CF)cn1 [Example 8, (R,E)-5-(2-(6-(1H-imidazol-1-yl)pyridin-3-yl)vinyl)-2-(4-(5-(fluoromethyl)pyrimidin-2-yl)-3-(methoxymethyl)piperazin-1-yl)pyrimidine]	≤ 4.92	10909	8.96	–
COC[C@H]1CN(c2ccccn2)CCN1c1ncc(/C=C/c2cnc3nc(C)cn3c2)cn1 [Example 19, (R,E)-6-(2-(2-(2-(methoxymethyl)-4-(pyridin-2-yl)piperazin-1-yl)pyrimidin-5-yl)vinyl)-2-methylimidazo[1,2-a]pyrimidine]	≤ 4.92	8571	8.85	–
COC[C@H]1CN(c2ncc(/C=C/c3ccc(-n4ccnc4)nc3)cn2)CCN1c1ncc(OCC(O)CF)cn1 (stereo partly drawn) [Example 39, 1-((2-((R)-4-(5-((E)-2-(6-(1H-imidazol-1-yl)pyridin-3-yl)vinyl)pyrimidin-2-yl)-2-(methoxymethyl)piperazin-1-yl)pyrimidin-5-yl)oxy)-3-fluoropropan-2-ol]	–	7692	9.28	–
C[C@H]1CN(c2ccc(F)cn2)CCN1c1ncc(C#Cc2cnc(-n3cnnc3)nc2)cn1 [Example 86, (S)-5-((2-(4H-1,2,4-triazol-4-yl)pyrimidin-5-yl)ethynyl)-2-(4-(5-fluoropyridin-2-yl)-2-methylpiperazin-1-yl)pyrimidine]	–	–	8.59	–
COC[C@H]1CN(c2ncc(C#Cc3ccc(N4CCC(n5nccn5)CC4)nc3)cn2)CCN1c1ncccn1 [Example 76, (R)-5-((6-(4-(2H-1,2,3-triazol-2-yl)piperidin-1-yl)pyridin-3-yl)ethynyl)-2-(3-(methoxymethyl)-4-(pyrimidin-2-yl)piperazin-1-yl)pyrimidine]	–	–	8.94	–

Now from value to compound:

pKi [1]	Selectivity ratio (Assay 2/Assay 1) [2]	pKi [2, 3]	pKi [2]	SMILES
≤ 5.92	237	8.30	–	COC[C@H]1CN(c2ncc(C#Cc3ccc(-n4cnnc4F)nc3)cn2)CCN1c1ncccn1 [Example 59, (R)-5-((6-(3-fluoro-4H-1,2,4-triazol-4-yl)pyridin-3-yl)ethynyl)-2-(3-(methoxymethyl)-4-(pyrimidin-2-yl)piperazin-1-yl)pyrimidine]
≤ 5.92	857	–	8.85	Cn1cc(-c2ncc(C#Cc3cnc(N4CCN(c5ncccn5)[C@@H](COCCOCCF)C4)nc3)cn2)cn1 [Example 52, (R)-2-(3-((2-(2-fluoroethoxy)ethoxy)methyl)-4-(pyrimidin-2-yl)piperazin-1-yl)-5-((2-(1-methyl-1H-pyrazol-4-yl)pyrimidin-5-yl)ethynyl)pyrimidine]
≤ 5.92	2673	9.35	–	Cn1cc(-c2ccc(C#Cc3cnc(N4CCN(c5ncncn5)[C@@H](COCCF)C4)nc3)cn2)cn1 [Example 50, (R)-2-(2-((2-fluoroethoxy)methyl)-4-(5-((6-(1-methyl-1H-pyrazol-4-yl)pyridin-3-yl)ethynyl)pyrimidin-2-yl)piperazin-1-yl)-1,3,5-triazine]
≤ 5.92	798	8.82	–	OC(CF)COC[C@H]1CN(c2ncc(C#Cc3ccc(-c4cnco4)nc3)cn2)CCN1c1ncncn1 (stereo partly drawn) [Example 67, 1-fluoro-3-(((R)-4-(5-((6-(oxazol-5-yl)pyridin-3-yl)ethynyl)pyrimidin-2-yl)-1-(1,3,5-triazin-2-yl)piperazin-2-yl)methoxy)propan-2-ol]
≤ 5.92	705	8.77	–	COC[C@H]1CN(c2ncc(C#Cc3ccc(-c4cnn(CCOCCF)c4)nc3)cn2)CCN1c1ncncn1 [Example 77, (R)-2-(4-(5-((6-(1-(2-(2-fluoroethoxy)ethyl)-1H-pyrazol-4-yl)pyridin-3-yl)ethynyl)pyrimidin-2-yl)-2-(methoxymethyl)piperazin-1-yl)-1,3,5-triazine]
–	–	–	8.37	Cn1ccc(-c2ncc(C#Cc3cnc(N4CCN(c5ncc(F)cn5)[C@@H](COCCF)C4)nc3)cn2)n1 [Example 97, (R)-5-fluoro-2-(2-((2-fluoroethoxy)methyl)-4-(5-((2-(1-methyl-1H-pyrazol-3-yl)pyrimidin-5-yl)ethynyl)pyrimidin-2-yl)piperazin-1-yl)pyrimidine]
–	–	8.26	–	Cn1cc(-c2ncc(C#Cc3cnc(N4CCN(c5ncncn5)C[C@H]4COCCF)nc3)cn2)cn1 [Example 96, (S)-2-(3-((2-fluoroethoxy)methyl)-4-(5-((2-(1-methyl-1H-pyrazol-4-yl)pyrimidin-5-yl)ethynyl)pyrimidin-2-yl)piperazin-1-yl)-1,3,5-triazine]
–	–	9.16	–	COC[C@H]1CN(c2ncc(C#Cc3ccc(-c4cnn(CCF)c4)nc3)cn2)CCN1c1ncncn1 [Example 47, (R)-2-(4-(5-((6-(1-(2-fluoroethyl)-1H-pyrazol-4-yl)pyridin-3-yl)ethynyl)pyrimidin-2-yl)-2-(methoxymethyl)piperazin-1-yl)-1,3,5-triazine]
–	–	8.04	–	Nc1cnn(-c2ncc(C#Cc3cnc(N4CCN(c5ncncn5)[C@@H](COCCF)C4)nc3)cn2)c1 [Example 73, (R)-1-(5-((2-(3-((2-fluoroethoxy)methyl)-4-(1,3,5-triazin-2-yl)piperazin-1-yl)pyrimidin-5-yl)ethynyl)pyrimidin-2-yl)-1H-pyrazol-4-amine]
–	–	9.19	–	COC[C@H]1CN(c2ncc(C#Cc3cnc(-c4cnn(CF)c4)nc3)cn2)CCN1c1ncncn1 [Example 56, (R)-2-(4-(5-((2-(1-(fluoromethyl)-1H-pyrazol-4-yl)pyrimidin-5-yl)ethynyl)pyrimidin-2-yl)-2-(methoxymethyl)piperazin-1-yl)-1,3,5-triazine]
–	–	8.61	–	COC[C@H]1CN(c2ncc(C#Cc3cnc(-c4cnn(CCCF)c4)nc3)cn2)CCN1c1ncncn1 [Example 91, (R)-2-(4-(5-((2-(1-(3-fluoropropyl)-1H-pyrazol-4-yl)pyrimidin-5-yl)ethynyl)pyrimidin-2-yl)-2-(methoxymethyl)piperazin-1-yl)-1,3,5-triazine]
–	–	9.08	–	COC[C@H]1CN(c2ncc(C#Cc3ccc(-c4cnn(C)c4)nc3)cn2)CCN1c1ncc(OCCF)cn1 [Example 92, (R)-5-(2-fluoroethoxy)-2-(2-(methoxymethyl)-4-(5-((6-(1-methyl-1H-pyrazol-4-yl)pyridin-3-yl)ethynyl)pyrimidin-2-yl)piperazin-1-yl)pyrimidine]
–	–	8.71	–	Cn1nccc1-c1ncc(C#Cc2cnc(N3CCN(c4ncncn4)[C@@H](COCCF)C3)nc2)cn1 [Example 98, (R)-2-(2-((2-fluoroethoxy)methyl)-4-(5-((2-(1-methyl-1H-pyrazol-5-yl)pyrimidin-5-yl)ethynyl)pyrimidin-2-yl)piperazin-1-yl)-1,3,5-triazine]
